According to patent publication US20170114021A1, “HALOGEN-SUBSTITUTED COMPOUNDS” (priority 2014, published 2017):

Columns and labels:
[1] = test system: Musca domestica; assay: Musca domestica test (MUSCDO); type: in vivo; details: application rate 20 ppm; adult houseflies; after 2 days
Description: Musca domestica-Test (MUSCDO) Solvent: dimethyl sulphoxide
(§1) To produce a suitable preparation of active compound, 10 mg of active compound are mixed with 0.5 ml of dimethyl sulphoxide, and the concentrate is diluted with water to the desired concentration.
Vessels containing a sponge treated with sugar solution and the active compound preparation of the desired concentration are populated with 10 adult houseflies (Musca domestica).
After 2 days, the kill in % is determined. 100% means that all of the flies have been killed; 0% means that none of the flies have been killed.

[2] = test system: Boophilus microplus Parkhurst strain, SP-resistant; assay: Boophilus microplus dip test (BOOPMI Dip); type: in vivo; details: application rate 20 ppm; engorged adult female cattle ticks; after 7 days
Description: Boophilus microplus—Dip Test (BOOPMI Dip) Test animals: cattle ticks (Boophilus microplus) Parkhurst strain, SP-resistant Solvent: dimethyl sulphoxide
10 mg of active compound are dissolved in 0.5 ml of dimethyl sulphoxide. To produce a suitable formulation, the active compound solution is diluted with water to the concentration desired in each case.
This active compound preparation is pipetted into tubes. 8-10 engorged adult female cattle ticks (Boophilus microplus) are transferred into a further tube with holes. The tube is immersed into the active compound preparation, and all the ticks are completely wetted. After the liquid has run out, the ticks are transferred on filter discs into plastic dishes and stored in a climate-controlled room.
(§2) Efficacy is assessed after 7 days by laying of fertile eggs. Eggs which are not visibly fertile are stored in a climate-controlled cabinet until the larvae hatch after about 42 days. An efficacy of 100% means that none of the ticks has laid any fertile eggs; 0% means that all the eggs are fertile.

[3] = test system: Amblyomma hebraeum; assay: Amblyomma hebaraeum test (AMBYHE), tick nymph immersion; type: in vivo; details: application rate 20 ppm; tick nymphs; after 42 days
Description: Amblyomma hebaraeum Test (AMBYHE) Solvent: dimethyl sulphoxide
as §1
Tick nymphs (Amblyomma hebraeum) are placed into perforated plastic beakers and immersed in the desired concentration for one minute. The ticks are transferred on filter paper into a Petri dish and stored in a climate-controlled cabinet.
After 42 days, the kill in % is determined. 100% means that all of the ticks have been killed; 0% means that none of the ticks have been killed.

[4] = test system: Boophilus microplus; assay: Boophilus microplus injection test (BOOPMI Inj); type: in vivo; details: application rate 4 μg/animal; injection into abdomen
Description: Boophilus microplus—Injection Test (BOOPMI Inj) Solvent: dimethyl sulphoxide
To produce a suitable preparation of active compound, 10 mg of active compound are mixed with 0.5 ml of solvent and the concentrate is diluted with solvent to the desired concentration.
1 μl of the active compound solution is injected into the abdomen of 5 engorged adult female cattle ticks (Boophilus microplus). The animals are transferred into dishes and kept in a climate-controlled room.
as §2, with “The activity” for “Efficacy”, “the desired time” for “7 days”

[5] = test system: Ctenocephalides felis; assay: Ctenocephalides felis oral test (CTECFE); type: in vivo; details: application rate 20 ppm in citrated cattle blood; after 2 days
Description: Ctenocephalides felis—Oral Test (CTECFE) Solvent: dimethyl sulphoxide
To produce a suitable preparation of active compound, 10 mg of active compound are mixed with 0.5 ml of dimethyl sulphoxide. Dilution with citrated cattle blood gives the desired concentration.
About 20 unfed adult cat fleas (Ctenocephalides felis) are placed into a chamber which is closed at the top and bottom with gauze. A metal cylinder whose bottom end is closed with parafilm is placed onto the chamber. The cylinder contains the blood/active compound preparation, which can be imbibed by the fleas through the parafilm membrane.
After 2 days, the kill in % is determined. 100% means that all of the fleas have been killed; 0% means that none of the fleas have been killed.

[6] = test system: Lucilia cuprina; assay: Lucilia cuprina test (LUCICU); type: in vivo; details: application rate 20 ppm; L1 larvae; after 2 days
Description: Lucilia cuprina-Test (LUCICU) Solvent: dimethyl sulphoxide
as §1
About 20 L1 larvae of the Australian sheep blowfly (Lucilia cuprina) are transferred into a test vessel containing minced horsemeat and the active compound preparation of the desired concentration.
After 2 days, the kill in % is determined. 100% means that all the larvae have been killed; 0% means that no larvae have been killed.

[7] = log P by HPLC on reversed-phase column (C18), EEC Directive 79/831 Annex V.A8; type: physicochemical
Description: ^a) Unless indicated otherwise, the following method was used to determine the log P values and masses: The determination of the given log P values was carried out in accordance with EEC Directive 79/831 Annex V.A8 by HPLC (High Performance Liquid Chromatography) on a reversed-phase column (C18). Agilent 1100 LC system; 50*4.6 Zorbax Eclipse Plus C18 1.8 micron; mobile phase A: acetonitrile (0.1% formic acid); mobile phase B: water (0.09% formic acid); linear gradient from 10% acetonitrile to 95% acetonitrile in 4.25 min, then 95% acetonitrile for a further 1.25 min; oven temperature 55° C.; flow rate: 2.0 ml/min. Mass detection is effected by means of an Agilend MSD system.

[8] = test system: Phaedon cochleariae; assay: Phaedon cochleariae spray test (PHAECO); type: in vivo; details: application rate 100 g/ha; Chinese cabbage leaf discs; after 7 days
Description: Phaedon cochleariae—Spray Test (PHAECO) Solvent: 78.0 parts by weight of acetone • • 1.5 parts by weight of dimethylformamide Emulsifier: alkylaryl polyglycol ether
To produce a suitable preparation of active compound, 1 part by weight of active compound is dissolved using the specified parts by weight of solvent and made up with water containing an emulsifier concentration of 1000 ppm until the desired concentration is attained. To produce further test concentrations, the preparation is diluted with emulsifier-containing water.
After 7 days, efficacy in % is determined. 100% means that all the beetle larvae have been killed; 0% means that no beetle larvae have been killed.

[9] = test system: Ctenocephalides felis; assay: Ctenocephalides felis in vitro contact test; type: in vivo; details: application rate 5 μg/cm^2; adult cat fleas; after 48 h
Description: Ctenocephalides felis—In Vitro Contact Test
For the coating of the test tubes, 9 mg of active compound are first dissolved in 1 ml of acetone p.a. and then diluted to the desired concentration with acetone p.a. 250 μl of the solution are distributed homogeneously on the inner walls and the base of a 25 ml test tube by turning and rocking on an orbital shaker (rocking rotation at 30 rpm for 2 h). With 900 ppm active compound solution and internal surface 44.7 cm^2, given homogeneous distribution, an area-based dose of 5 μg/cm^2 is achieved.
After the solvent has evaporated off, the tubes are populated with 5-10 adult cat fleas (Ctenocephalides felis), sealed with a perforated plastic lid and incubated in a horizontal position at room temperature and ambient humidity. After 48 h, efficacy is determined. To this end, the test tubes are stood upright and the fleas are knocked to the base of the tube. Fleas which remain motionless at the base or move in an uncoordinated manner are considered to be dead or moribund.
100% efficacy means that all the fleas were dead or moribund. 0% efficacy means that no fleas were harmed.

N-{2-fluoro-5-[2′-methyl-5′-(pentafluoroethyl)-4′-(trifluoromethyl)-2′H-1,3′-bipyrazol-4-yl]benzyl}propanamide [Ic-1]
efficacy (kill) [1]: 100% | efficacy (laying of fertile eggs) [2]: 100% | efficacy (kill) [3]: 100% | efficacy (laying of fertile eggs) [4]: 100% | efficacy (kill) [5]: 100% | efficacy (kill) [6]: 100% | log P [7]: 3.83 | efficacy [8]: 100% | efficacy [9]: 100%
